Measured values taken from ChEMBL document CHEMBL1201862, “PubChem BioAssay data set” (2004).
Several values for one entry are separate records, joined by “and”; a condition that tells them apart may be missing. Equal entries are not always repeated.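 Grown in 96-well plates, cells were treated for 48 hours with each compound at five concentrations. Insufficient inhibition: endpoint recorded as highest concentration tested. GI50 = concentration required for 50% inhibition of growth.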 Activity calls are given as the source filed them. Rule as the data show it: active = GI50 up to about 1.1 µM and inactive = higher.

Key:
Test in all cases: growth of human tumour cells (NCI), 48 h
[1] = system: RXF 393
[2] = system: LOX IMVI
[3] = system: Malme-3M
[4] = system: NCI-H522
[5] = system: MDA-N
[6] = system: MCF7
[7] = system: A498
[8] = system: HCT-15
[9] = system: OVCAR-3
[10] = system: UO-31
[11] = system: HL-60
[12] = system: OVCAR-5
[13] = system: 786-0
[14] = system: SF-268
[15] = system: SNB-19
[16] = system: BT-549
[17] = system: RPMI-8226
[18] = system: HOP-62
[19] = system: NCI-H23

SMILES	GI50 [1]	GI50 [2]	GI50 [3]	GI50 [4]	GI50 [5]	GI50 [6]	GI50 [7]	GI50 [8]	GI50 [9]	GI50 [10]	GI50 [11]	GI50 [12]	GI50 [13]	GI50 [14]	GI50 [15]	GI50 [16]	GI50 [17]	GI50 [18]	GI50 [19]
Cc1cc(C)c(O)c(CN2CCN(C(C)C)CCN(C(C)C)CC2)c1	16 µM (inactive)	16.1 µM (inactive)	13.8 µM (inactive)	16.1 µM (inactive)	20.6 µM (inactive)	20.8 µM (inactive)	> 100 µM (inactive)	46.7 µM	22.2 µM (inactive)	18.6 µM (inactive)	11.7 µM (inactive)	18.7 µM (inactive)	42.9 µM (inactive)	54.3 µM (inactive)	63.1 µM (inactive)	22 µM (inactive)	21.9 µM (inactive)	–	–
CN(C(=O)Nc1ccc(Cl)c(Cl)c1)C1CCCC[C@@H]1N1CCCC1 (stereo partly drawn)	37.7 µM (inactive)	30.3 µM (inactive)	22 µM (inactive)	41.7 µM (inactive)	34 µM (inactive)	33.6 µM (inactive)	24.2 µM (inactive)	41.4 µM	76.6 µM (inactive)	19.3 µM (inactive)	–	32.4 µM (inactive)	48.6 µM (inactive)	31.6 µM (inactive)	66.7 µM (inactive)	22.4 µM (inactive)	24.7 µM (inactive)	> 100 µM (inactive)	> 100 µM (inactive)
C=C(Cl)C(Cl)(CBr)CCC(Br)C(C)(C)Cl (stereo not drawn)	991 nM (active) and 190 nM (active) and 1.11 µM (active)	19.1 µM (inactive) and 5.7 µM (inactive) and 15.6 µM (inactive)	13.6 µM (inactive) and 15.3 µM (inactive) and 7.36 µM (inactive)	16 µM (inactive) and 13.8 µM (inactive) and 14.3 µM (inactive)	2.28 µM (inactive) and 964 nM (active) and 8.77 µM (inactive)	1.26 µM (inactive) and 2.54 µM (inactive) and 220 nM (active)	1.63 µM (inactive) and 2.79 µM (inactive) and 2.03 µM (inactive)	2.07 µM and 13.3 µM and 3.18 µM	798 nM (active) and 2.23 µM (inactive) and 1.51 µM (inactive)	1.85 µM (inactive) and 6.27 µM (inactive) and 1.99 µM (inactive)	635 nM (active) and 733 nM (active) and 2.42 µM (inactive)	1.93 µM (inactive) and 14.7 µM (inactive) and 3.42 µM (inactive)	640 nM (active) and 175 nM (active) and 247 nM (active)	3.03 µM (inactive) and 735 nM (active) and 1.35 µM (inactive)	2.41 µM (inactive) and 863 nM (active) and 3.49 µM (inactive)	2.05 µM (inactive) and 1.04 µM (active) and 1.79 µM (inactive)	149 nM (active) and 221 nM (active) and 485 nM (active)	703 nM (active) and 785 nM (active) and 1.43 µM (inactive)	22.4 µM (inactive) and 16.3 µM (inactive) and 12 µM (inactive)
N#Cc1cc2c(cc1C#N)SCCSCCCSCCS2	5.92 µM (inactive)	6.31 µM (inactive)	20.1 µM (inactive)	25.8 µM (inactive)	> 100 µM (inactive)	28.2 µM (inactive)	40.8 µM (inactive)	14.6 µM	25.2 µM (inactive)	> 53.3 µM (inactive)	> 10 µM (inactive)	> 72.3 µM (inactive)	5.09 µM (inactive)	10.3 µM (inactive)	6.79 µM (inactive)	15 µM (inactive)	> 100 µM (inactive)	1.71 µM (inactive)	16.1 µM (inactive)
CCC(=O)O[C@H]1CC[C@H]2[C@@H]3CCC4=C/C(=N/OC(=O)c5cccc6cc7ccccc7nc56)CC[C@]4(C)[C@H]3CC[C@]12C	> 100 µM (inactive)	33.4 µM (inactive)	29.2 µM (inactive)	41.4 µM (inactive)	51.5 µM (inactive)	42.2 µM (inactive)	> 100 µM (inactive)	55.7 µM	29 µM (inactive)	–	44.3 µM (inactive)	> 100 µM (inactive)	> 100 µM (inactive)	> 100 µM (inactive)	70.1 µM (inactive)	63.8 µM (inactive)	50.4 µM (inactive)	50.5 µM (inactive)	52.8 µM (inactive)
O=C(c1ccccc1)c1ccc(N2C(=O)/C(=C/c3cccc(Oc4ccccc4)c3)N=C2c2ccccc2)c(N2C(=O)/C(=C/c3cccc(Oc4ccccc4)c3)N=C2c2ccccc2)c1	23.8 µM (inactive)	32.9 µM (inactive)	19.5 µM (inactive)	11.4 µM (inactive)	5.09 µM (inactive)	24.9 µM (inactive)	33.1 µM (inactive)	21.2 µM	18.9 µM (inactive)	33.3 µM (inactive)	6.47 µM (inactive)	50.6 µM (inactive)	31.5 µM (inactive)	36.3 µM (inactive)	38.5 µM (inactive)	24.7 µM (inactive)	19.3 µM (inactive)	67.5 µM (inactive)	29.6 µM (inactive)
CCC(CC)C(=O)OC[n+]1cccc(-c2c(COC(=O)NC(C)C)c(COC(=O)NC(C)C)c3n2CCC3)c1	61.4 µM (inactive)	> 100 µM (inactive)	> 100 µM (inactive)	56.2 µM (inactive)	> 100 µM (inactive)	64.9 µM (inactive)	> 100 µM (inactive)	> 100 µM	> 100 µM (inactive)	> 100 µM (inactive)	33.1 µM (inactive)	> 100 µM (inactive)	50 µM (inactive)	62.8 µM (inactive)	> 100 µM (inactive)	> 100 µM (inactive)	> 100 µM (inactive)	43.4 µM (inactive)	61.1 µM (inactive)
O=C(NNC(=S)Nc1ccccc1)C12CC3CC(CC(C3)C1)C2	27.7 µM (inactive)	11.2 µM (inactive)	20 µM (inactive)	28.1 µM (inactive)	26.8 µM (inactive)	19.2 µM (inactive)	21.1 µM (inactive)	7.28 µM	10.6 µM (inactive)	4.58 µM (inactive)	7.01 µM (inactive)	59.4 µM (inactive)	19.3 µM (inactive)	17.1 µM (inactive)	25.4 µM (inactive)	9.1 µM (inactive)	17.3 µM (inactive)	35.2 µM (inactive)	31.8 µM (inactive)
CCC(CS(=O)(=O)O)[N+](=O)[O-] (stereo not drawn)	> 100 µM (inactive)	> 100 µM (inactive)	> 100 µM (inactive)	> 100 µM (inactive)	> 100 µM (inactive)	> 100 µM (inactive)	> 100 µM (inactive)	> 100 µM	> 100 µM (inactive)	> 100 µM (inactive)	> 100 µM (inactive)	> 100 µM (inactive)	> 100 µM (inactive)	> 100 µM (inactive)	> 100 µM (inactive)	> 100 µM (inactive)	> 100 µM (inactive)	> 100 µM (inactive)	> 100 µM (inactive)
CC(CCc1ccccc1)NCC(O)n1c(/N=N/N(C)C)nc2c1c(=O)n(C)c(=O)n2C (stereo not drawn)	> 100 µM (inactive)	> 100 µM (inactive)	> 100 µM (inactive)	> 100 µM (inactive)	> 100 µM (inactive)	> 100 µM (inactive)	> 100 µM (inactive)	> 100 µM	> 100 µM (inactive)	> 100 µM (inactive)	66.7 µM (inactive)	> 100 µM (inactive)	> 100 µM (inactive)	> 100 µM (inactive)	> 100 µM (inactive)	> 100 µM (inactive)	> 100 µM (inactive)	> 100 µM (inactive)	> 100 µM (inactive)
C[C@]12CC[C@H](O)CC1=CC[C@@H]1[C@@H]2CC[C@]2(C)C(=N/O)/C(=C/c3ccc([N+](=O)[O-])cc3)C[C@@H]12	3.6 µM (inactive)	8.34 µM (inactive)	7.43 µM (inactive)	3.18 µM (inactive)	6.93 µM (inactive)	3.78 µM (inactive)	3.33 µM (inactive)	4.78 µM	1.76 µM (inactive)	8.22 µM (inactive)	1.91 µM (inactive)	1.61 µM (inactive)	3.03 µM (inactive)	10.9 µM (inactive)	10.6 µM (inactive)	10.5 µM (inactive)	3.59 µM (inactive)	0.619 µM (active)	5.94 µM (inactive)
CCN(CC)CCNc1ccc2nnn3c4ccc(O)cc4c(=O)c1c23	0.603 µM (active)	1.21 µM (inactive)	4.93 µM (inactive)	6.82 µM (inactive)	4.09 µM (inactive)	2.7 µM (inactive)	8.83 µM (inactive)	1.83 µM	8.02 µM (inactive)	0.608 µM (active)	2.05 µM (inactive)	8.02 µM (inactive)	1.24 µM (inactive)	6.49 µM (inactive)	5.52 µM (inactive)	12.7 µM (inactive)	2 µM (inactive)	1.76 µM (inactive)	5.73 µM (inactive)
CSc1c(C(=O)Nc2ccc(Cl)cc2)c(N)n(N)c(=O)c1C#N	> 100 µM (inactive)	31.8 µM (inactive)	> 100 µM (inactive)	25.7 µM (inactive)	> 100 µM (inactive)	75.3 µM (inactive)	36 µM (inactive)	77.4 µM	48.8 µM (inactive)	31.6 µM (inactive)	78.7 µM (inactive)	58.9 µM (inactive)	> 100 µM (inactive)	> 100 µM (inactive)	> 100 µM (inactive)	> 100 µM (inactive)	57.4 µM (inactive)	–	61.5 µM (inactive)
CCO/C(=N/S(=O)(=O)C(F)(F)F)N(C(C)C)C(C)C	> 100 µM (inactive)	> 100 µM (inactive)	> 100 µM (inactive)	> 100 µM (inactive)	> 100 µM (inactive)	> 100 µM (inactive)	> 100 µM (inactive)	> 100 µM	–	–	> 100 µM (inactive)	> 100 µM (inactive)	> 100 µM (inactive)	> 100 µM (inactive)	> 100 µM (inactive)	> 100 µM (inactive)	> 100 µM (inactive)	–	> 100 µM (inactive)
